Reference: publication PMC8214093, “Structural basis of KdpD histidine kinase binding to the second messenger c-di-AMP” (The Journal of Biological Chemistry, 2021)
“And” between values parts separate entries of the source, which are not always exact repeats. Equal entries are not always repeated.

Assays:
[1] = biological target: T1, USPSa-WT (Staphylococcus aureus, UniProt A0A7U7EVR3); assay: biochemical; assay type: binding; conditions: for Kd: Dissociation Constant (KD) ± Standard Deviation
Protocol: For labeling, the proteins were diluted to a concentration of 800 nM in binding buffer (50 mM potassium phosphate, pH 8.0, 800 mM NaCl, and 0.05% Tween 20), mixed with an equal volume of RED-Tris-NTA dye (80 nM), and incubated on ice in the dark for 30 min. […] The labeled proteins and the ligand dilutions were then mixed in a 1:1 ratio and incubated on ice in the dark for 30 min.
The samples were then loaded into Monolith standard-treated capillaries in triplicate, and the changes in fluorescence were measured with 40% LED power and 20% IR-laser power for an on-time of 20-s at 23 °C. To determine the binding affinity, the ligand-dependent changes in the intensity of the initial fluorescence, or the thermophoretic mobility, were analyzed according to the law of mass action in a standard fitting mode of MO.Affinity analysis software (version 2.3). To exclude the possibility of nonspecific binding of the ligand to the His6-tag (on USPSa) or ligand-induced USP adsorption to labware or due to aggregation, we performed His6-peptide and EDTA tests, respectively ([91]). […] In the EDTA test, the binding buffer additionally contained 50 mM EDTA to disrupt the interaction between His6-USP and the RED-Tris-NTA dye.

[2] = system: USPSa-S244A; assay: MicroScale Thermophoresis (initial fluorescence change) nucleotide binding; set-up: species or system Staphylococcus aureus; conditions: S244A mutant
Protocol: (§1) The ligand-binding specificity of USPSa, the role of USPSa residues in c-di-AMP binding, and the c-di-AMP binding affinity of USP homologs were biochemically determined by MST, using purified WT and mutant proteins. […] For these MST experiments, WT and active-site mutants of His6-USPSa were first fluorescently labeled using a RED-Tris NTA Monolith His-Tag labeling kit (Nanotemper, Technologies, Inc). For labeling, the proteins were diluted to a concentration of 800 nM in binding buffer (50 mM potassium phosphate, pH 8.0, 800 mM NaCl, and 0.05% Tween 20), mixed with an equal volume of RED-Tris-NTA dye (80 nM), and incubated on ice in the dark for 30 min. The stock solutions of ligands (c-di-AMP, c-di-GMP, ATP, AMP, c-AMP) were serially diluted with the binding buffer in a 1:1 ratio during each dilution step. The labeled proteins and the ligand dilutions were then mixed in a 1:1 ratio and incubated on ice in the dark for 30 min.
(§2) The samples were then loaded into Monolith standard-treated capillaries in triplicate, and the changes in fluorescence were measured with 40% LED power and 20% IR-laser power for an on-time of 20-s at 23 °C. To determine the binding affinity, the ligand-dependent changes in the intensity of the initial fluorescence, or the thermophoretic mobility, were analyzed according to the law of mass action in a standard fitting mode of MO.Affinity analysis software (version 2.3). To exclude the possibility of nonspecific binding of the ligand to the His6-tag (on USPSa) or ligand-induced USP adsorption to labware or due to aggregation, we performed His6-peptide and EDTA tests, respectively ([91]). In the His6-peptide test, a control His6-peptide was used instead of USP in the binding assay described above, and if no change in initial fluorescence occurred, this confirmed the USP-specific binding of ligands. In the EDTA test, the binding buffer additionally contained 50 mM EDTA to disrupt the interaction between His6-USP and the RED-Tris-NTA dye. The complete loss of the ligand-induced initial fluorescence change in this assay confirmed that this change was neither because of protein aggregation nor because of protein adsorption to labware.
(§3) The Ka values of WT USPSa for c-di-AMP or AMP were set to 100% relative affinity, and the binding affinities of the other nucleotides (Fig. 1C), or USPSa mutants (Fig. 4E), or USP homologs (Fig. 6, B and C) were depicted as percent values compared with the values of the WT USPSa.

[3] = biological target: T2, USPSa-A242G (Staphylococcus aureus, UniProt A0A7U7EVR3, A242G); assay: as above
T2 sequence (A0A7U7EVR3 213-364 A242G): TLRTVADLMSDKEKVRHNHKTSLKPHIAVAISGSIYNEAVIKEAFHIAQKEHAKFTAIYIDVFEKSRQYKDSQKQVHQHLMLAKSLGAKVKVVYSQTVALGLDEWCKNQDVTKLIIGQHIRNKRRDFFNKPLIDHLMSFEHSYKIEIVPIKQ
Protocol: as §1, §2, §3

[4] = biological target: T3, USPSa-H331A (Staphylococcus aureus, UniProt A0A7U7EVR3, H331A); assay: as above; conditions: H331A mutant; MST, initial fluorescence; read-out: Dissociation Constant (KD) ± Standard Deviation
T3 sequence (A0A7U7EVR3 213-364 H331A): T2 sequence (A0A7U7EVR3 213-364 A242G)
Protocol: as §1, §2, §3

[5] = biological target: USPSa-K282A (Staphylococcus aureus, UniProt A0A7U7EVR3, K282A); assay: as above; conditions: K282A mutant, MST, read-out: Dissociation Constant (KD) ± Standard Deviation
Protocol: as §1, §2, §3

[6] = biological target: T4, USPSa-L344A (Staphylococcus aureus, UniProt A0A7U7EVR3, L344A); assay: as above; conditions: L344A mutant; MST, initial fluorescence; read-out: Dissociation Constant (KD) ± Standard Deviation
T4 sequence (A0A7U7EVR3 213-364 L344A): T2 sequence (A0A7U7EVR3 213-364 A242G)
Protocol: as §1, §2, §3

[7] = biological target: T5, USPSa-N249A (Staphylococcus aureus, UniProt A0A7U7EVR3, N249A); assay: as above; conditions: N249A mutant
T5 sequence (A0A7U7EVR3 213-364 N249A): T2 sequence (A0A7U7EVR3 213-364 A242G)
Protocol: as §1, §2, §3

[8] = biological target: USPSa-Q280A (Staphylococcus aureus, UniProt A0A7U7EVR3, Q280A); assay: as above; conditions: Q280A mutant, MST, read-out: Dissociation Constant (KD) ± Standard Deviation
Protocol: as §1, §2, §3

[9] = biological target: T6, USPSa-S244D (Staphylococcus aureus, UniProt A0A7U7EVR3, S244D); assay: as above; conditions: S244D mutant
T6 sequence (A0A7U7EVR3 213-364 S244D): T2 sequence (A0A7U7EVR3 213-364 A242G)
Protocol: as §1, §2, §3

[10] = biological target: T7, USPSa-S246A (Staphylococcus aureus, UniProt A0A7U7EVR3, S246A); assay: as above; conditions: S246A mutant; MST, initial fluorescence; read-out: Dissociation Constant (KD) ± Standard Deviation
T7 sequence (A0A7U7EVR3 213-364 S246A): T2 sequence (A0A7U7EVR3 213-364 A242G)
Protocol: as §1, §2, §3

[11] = biological target: USPSa-V310A (Staphylococcus aureus, UniProt A0A7U7EVR3, V310A); assay: as above; conditions: V310A mutant, MST, read-out: Dissociation Constant (KD) ± Standard Deviation
Protocol: as §1, §2, §3

[12] = biological target: T8, USPSa-Y248A (Staphylococcus aureus, UniProt A0A7U7EVR3, Y248A); assay: as above; conditions: Y248A mutant; MST, initial fluorescence; read-out: Dissociation Constant (KD) ± Standard Deviation
T8 sequence (A0A7U7EVR3 213-364 Y248A): T2 sequence (A0A7U7EVR3 213-364 A242G)
Protocol: as §1, §2, §3

[13] = biological target: T9, USPSa-Y281F (Staphylococcus aureus, UniProt A0A7U7EVR3, Y281F); assay: as above; conditions: Y281F mutant; MST, initial fluorescence; read-out: Dissociation Constant (KD) ± Standard Deviation
T9 sequence (A0A7U7EVR3 213-364 Y281F): T2 sequence (A0A7U7EVR3 213-364 A242G)
Protocol: as §1, §2, §3

[14] = biological target: T10, USPSa-K277A (Staphylococcus aureus, UniProt A0A7U7EVR3, K277A); assay: MicroScale Thermophoresis (thermophoretic mobility change) nucleotide binding; conditions: K277A mutant; MST, change in thermophoretic mobility; read-out: Dissociation Constant (KD) ± Standard Deviation
T10 sequence (A0A7U7EVR3 213-364 K277A): T2 sequence (A0A7U7EVR3 213-364 A242G)
Protocol: as §1, §2, §3

[15] = biological target: USPSa-R279A (Staphylococcus aureus, UniProt A0A7U7EVR3, R279A); assay: as above; conditions: R279A mutant; MST, change in thermophoretic mobility; read-out: Dissociation Constant (KD) ± Standard Deviation
Protocol: as §1, §2, §3

[16] = biological target: T1, USPSa-WT; assay: as above; conditions: MST, change in thermophoretic mobility, read-out: Dissociation Constant (KD) ± Standard Deviation
Protocol: as §1, §2, §3

[17] = biological target: USPSa2-WT (Staphylococcus aureus, UniProt Q5HK61); assay: biochemical; assay type: binding; conditions: MST, change in thermophoretic mobility, read-out: Dissociation Constant (KD) ± Standard Deviation
[18] = biological target: USPSp-WT; assay type: binding, Streptococcus pneumoniae; conditions: MST, change in thermophoretic mobility, read-out: Dissociation Constant (KD) ± Standard Deviation
[19] = biological target: T11, USPMtb-WT (Mycobacterium tuberculosis, UniProt P9WGL3); assay: biochemical; assay type: binding
T11 construct: made in house; host or cells: E. coli C41 (DE3), pTB146, no KdpE co-expression

[20] = system: untagged USPSa; assay: fluorescence-based thermal shift (ThermoFluor) assay; assay type: binding, Staphylococcus aureus; conditions: 7.5-fold molar excess of c-di-AMP; purified untagged USPSa
Protocol: The plates were then sealed with Microseal “B” Seal Seals (Bio-Rad Laboratories) and heated in a CFX96 real-time PCR system (Bio-Rad Laboratories) from 25 °C to 99 °C in increments of 0.5 °C. Fluorescence changes in the plate wells were monitored simultaneously with a charge-coupled device camera, utilizing excitation and emission wavelengths of 497 nm and 520 nm, respectively.

[21] = biological target: maltose-binding protein–tagged USP; conditions: differential radial capillary action of ligand assay, read-out: previously reported KD; cited from earlier work
[22] = system: maltose-binding protein–tagged version of the USPSa Y271A mutant; set-up: method as in PMID 26195599; conditions: cited from earlier work
[23] = His6-USPSa WT, MST, changes in initial fluorescence

SMILES: Nc1ncnc2c1ncn2[C@@H]1O[C@@H]2COP(=O)(O)O[C@H]3[C@@H](O)[C@H](n4cnc5c(N)ncnc54)O[C@@H]3COP(=O)(O)O[C@H]2[C@H]1O [c-di-AMP, cyclic-di-adenosine monophosphate]
- Kd [1, 23]: 0.5 µM and 0.53 µM
- binding in MST analysis (in words) [2]: complete loss
- Dissociation Constant (KD) ± Standard Deviation ([2]; MST, initial fluorescence): No Binding Observed
- improvement of binding affinity versus WT USPSa [3]: ~50 fold
- Kd ([3]; A242G mutant, MST, initial fluorescence, read-out: Dissociation Constant (KD) ± Standard Deviation): 0.01 ± 0.01 µM
- Kd [4]: 2.37 ± 1.32 µM
- Kd [5]: 0.6 ± 0.24 µM
- Kd [6]: 8.84 ± 1.09 µM
- binding affinity versus WT USPSa (in words) [7]: significant reduction
- Kd ([7]; MST, initial fluorescence, read-out: Dissociation Constant (KD) ± Standard Deviation): 7.84 ± 0.34 µM
- Kd [8]: 0.87 ± 0.06 µM
- binding (in words) [9]: completely abolished
- Dissociation Constant (KD) ± Standard Deviation ([9]; MST, initial fluorescence): No Binding Observed
- Kd [10]: 1.3 ± 0.19 µM
- Kd [11]: 1.71 ± 0.42 µM
- Kd [12]: 4.22 ± 0.11 µM
- Kd [13]: 1.79 ± 0.84 µM
- Kd [14]: 10.1 ± 0.24 µM
- Kd [15]: 8.67 ± 0.75 µM
- Kd [16]: 3.13 ± 0.75 µM
- Kd [17]: 125 ± 15 µM
- Kd [18]: 67.5 ± 13 µM
- Kd [19]: 666 ± 168 µM
- increase of melting temperature of USPSa [20]: 10 °C
- Kd [21]: 2 ± 0.18 µM
- c-di-AMP binding in vitro (in words) [22]: deficient in c-di-AMP binding

SMILES: Nc1ncnc2c1ncn2[C@@H]1O[C@@H]2COP(=O)(O)O[C@H]3[C@@H](O)[C@H](n4cnc5c(N)ncnc54)O[C@@H]3COP(=O)(O)O[C@H]3[C@@H](O)[C@H](n4cnc5c(N)ncnc54)O[C@@H]3COP(=O)(O)O[C@H]2[C@H]1O [c-tri-AMP]
- Dissociation Constant (KD) ± Standard Deviation ([1]; His6-USPSa WT, MST, changes in initial fluorescence, columns without unit): No Binding Observed

SMILES: Nc1ncnc2c1ncn2[C@@H]1O[C@H](COP(=O)(O)OP(=O)(O)OP(=O)(O)O)[C@@H](O)[C@H]1O [ATP, adenosine triphosphate]
- binding affinity, fold lower than that of c-di-AMP [1]: > 5000 fold
- Kd [1, 23]: 5150 ± 70 µM
